Measurements reported in US8835644B2, “Broad spectrum benzothiophene-nitrothiazolide and other antimicrobials” (University of Virginia Patent Foundation, priority 2009, dated 2014).
≈ marks a conversion by molar mass, not a printed value. Structures can show the parent of a compound that is named as a salt. Where two headings read alike, the source gives them in different places.

Experiments:
[1] = reference (33); cited from earlier work
[2] = test system: S. aureus and S. epidermidis strains; test: MIC by microdilution in TSB, staphylococcal strains; assay type: cell-based, Staphylococcus epidermidis; settings: Staphylococcus aureus
Protocol: Minimal inhibitory concentration testing of NTZ was done in sterile round bottom 96 well microtiter polystyrene plates (Corning Inc., Corning, N.Y.) by microdilution. Tizoxanide TIZ (deacetylated form of NTZ), denitro-NTZ (TIZ without 5-nitro group) and amoxanide AMIX (TIZ-ethylamine) were also tested. Bacteria were grown overnight and suspended in fresh TSB to an OD600 of 0.01 and 100 μl were dispensed into wells with the first well containing 200 μA NTZ and other antibiotics (DMSO control) were added to well one and serially diluted from 32 μg/ml. All compounds were tested in triplicate and plates were read visually or with a plate reader (Molecular Devices) at 8, 12 and at 24 h. MIC was determined as the first well in which no visible bacterial growth was noted relative to controls. Drug effects on aerobic growth were determined in 125 ml flasks containing 25 ml of TSB medium and following inoculation (detailed above), flasks were on a gyrorotary shaker (200 rpm) at 37° C. Final concentrations of NTZ were 0, 10 and 25 μg/ml and samples were removed at hourly intervals and absorbance determined at 600 nm.

[3] = Zn2+ chelation, spectrophotometric and 1H NMR; assay type: physicochemical; settings: 1H NMR in DMSO-d6, ratios 1:1, 1:2, 2:1, up to 72 h
Protocol: To test direct binding of Zn^2+ by NTZ in solution, we tested a range of concentrations of both NTZ and TIZ and scanned the solutions spectrophotometrically using an OLIS Cary-14 (OLIS Instruments Co., Bogart Ga.). Absolute spectra were recorded over a UV/Vis range from 220 nm to 700 nm. Spectral shifts in the 418 nm range would be attributable to changes in resonance within the thiazole ring that would result if Zn^2+ were coordinated by NTZ (9).
Chelation experiments were also performed utilizing NTZ and TIZ in DMSO-d6 (0.5 mL) with ZnCl2 using a 300 MHz Varian MercuryPlus spectrometer. Specifically, three ratios of NTZ to Zn^2+ were investigated (1:1, 1:2, 2:1) where NTZ was held constant (4 mg, 13 μmoles) while varying ZnCl2 (1.8 mg, 13 μmoles or 3.5 mg, 26 μmoles) or NTZ (8 mg, 26 μmoles) with ZnCl2 (1.8 mg, 13 μmoles). Three ratios of TIZ to Zn^2+ were also investigated (1:1, 1:2, 2:1) where TIZ was held constant (4 mg, 15 μmoles) while varying ZnCl2 (2.1 mg, 15 μmoles or 4.1 mg, 30 μmoles) or TIZ (8 mg, 30 μmoles) with ZnCl2 (2.1 mg, 15 μmoles). ^1H NMR spectra were then obtained after mixing for 5 min, 24 h, 48 h, and 72 h at room temperature. Any chelation event would be evidenced by shifting or broadening of the thiazole and benzene protons as well as loss of the amide proton.

[4] = test system: S. epidermidis strain 9142; test: Biofilm determination, crystal violet, S. epidermidis; assay type: cell-based, Staphylococcus epidermidis
Protocol: Staphylococcal strains were cultured overnight in TSB at 37° C. with shaking, diluted in fresh medium to an OD600 of 0.01 and 200 W was dispensed into sterile flat bottom polystyrene 96 well microtiter plates (Costar 3596, Corning Inc.). […] Each compound and dilution was tested in triplicate. The plates were incubated overnight at 37° C. in a humidified incubator, without shaking and both growth and biofilm accumulation were determined at 16 h.
Following recording of turbidities, the culture medium was aspirated and the wells were washed three times with distilled water, blotted on paper towels, and fixed with 75% ethanol for 10 minutes.
To visualize biofilm material, 0.5% crystal violet was added to each well and after 5 minutes was removed and the wells washed three times with distilled water. Plates were read using a microplate reader at a wavelength of 570 nm. The dye was then extracted by adding 200 W of 95% ethanol, and the absorbance was read again at 570 nm. All assays were performed in triplicate and the mean and standard deviation determined. Generally, the ethanol-solubilized crystal violet was more reliable and these determinations are reported throughout.

S. epidermidis = test: MIC testing by broth dilution, S. epidermidis plank; assay type: cell-based, Staphylococcus epidermidis
In short: (§1)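 Compounds were diluted serially from 32 μg/ml to 0.06 in medium holding a standard inoculum, then visually scored at 24 h, and the lowest well without growth was recorded. Media were LB for E. coli, Trypticase Soy for S. epidermidis and Brain Heart Infusion for C. jejuni. C. difficile zones were measured anaerobically relative to NTZ.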

C. jejuni = test: MIC testing by broth dilution, C. jejuni; assay type: cell-based, Campylobacter jejuni
In short: as §1

C. difficile [5] = test: Disk diffusion (Kirby Bower), C. difficile; assay type: cell-based, Clostridium difficile; settings: for Disk Diff (%) C. difficile: Nitazoxanide = 100, Thiophene analogues table; for Disk Diffusion (%) C. difficile: zone of inhibited growth as relative ratio to the zone for NTZ
In short: as §1

S. epidermidis biofilm = S. epidermidis biofilm assay (activity tables); assay type: cell-based, Staphylococcus epidermidis; settings: for MIC S. epidermidis Biofilm: Thiophene analogues table
In short: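 Overnight TSB cultures diluted to OD600 0.01 and grown static with compound (triplicate) at 37° C for 16 h; turbidity recorded for growth. Biofilm: washed wells ethanol-fixed, stained with 0.5% crystal violet, A570 read before and after 95% ethanol extraction; mean ± SD.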

E. coli biofilm = E. coli biofilm assay (activity tables); assay type: cell-based, Escherichia coli
In short: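 After 24 h static culture at 37 °C in wells containing NTZ, strain 042 (1:100 inoculum) biofilm was quantified by 0.5% crystal violet absorbance at 570 nm. Planktonic growth was taken from turbidity or LB plate counts as cfu/ml; all runs triplicate, reported as mean and SD.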

E. coli = test: MIC testing by broth dilution, E. coli plank; assay type: cell-based, Escherichia coli
In short: as §1

[6] = test system: PFOR (pyruvate ferredoxin oxidoreductase); test: Direct PFOR enzyme assay; assay type: biochemical
MRSA = test: MIC testing by broth dilution, MRSA; assay type: cell-based, Staphylococcus aureus
In short: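 Values are broth-dilution MICs, defined as the well showing no growth on visual reading after 24 h; the tested range was 32 to 0.06 μg/ml, in organism-specific media (LB, Trypticase Soy, Brain Heart Infusion). The C. difficile entries come instead from anaerobic Kirby-Bauer disk zones, normalised to NTZ.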

C. difficile [7] = test: MIC by agar dilution, C. difficile; assay type: cell-based, Clostridium difficile
Protocol: A standard broth dilution protocol was used in 96 well microplates containing a standard dilution of the microorganism to be tested in 100 microliters of the appropriate medium. Appropriate medium: E. coli, LB medium; Staphylococcus strains, Trypticase Soy; and for H. pylori and C. jejuni, Brain Heart Infusion. The compounds to be tested were set at 32 μg/ml in 200 microliters in well one and then serially diluted to provide a range from 32 to 0.06. The wells were scored visually at 24 h. The well where there was no growth was recorded as the MIC. […]
Representative compounds of the invention were tested in a series of assays against a series of organisms as described above. […] The organisms tested include, C. difficile, H. pylori, C. jejuni, MRSA, S. epidermidis, and E. coli. S. epidermidis and E. coli were tested in the plank and biofilm assay. A disk diffusion assay was also used for C. difficile. Direct PFOR enzyme assays were also performed. All analogues and derivatives were not tested on every organism in every type of assay (the “-” in each table means that it was not tested).

H. pylori = test: MIC testing by broth dilution, H. pylori; assay type: cell-based, Helicobacter pylori
In short: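 Broth dilution MIC determination against H. pylori: a standard inoculum in 100 microliters of Brain Heart Infusion medium was placed in 96 well microplates. Test compounds began at 32 μg/ml in 200 microliters in well one and were serially diluted over a 32 to 0.06 range. After 24 h, plates were scored by eye and the first well without growth was recorded as the MIC.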

E. histolytica [8] = test: Amoebic dysentery mouse infection model; assay type: in vivo; settings: drugs given orally or parenterally in advance
[9] = test system: S. epidermidis strain 9142; test: Effect of zinc on the action of NTZ (biofilm and MIC); assay type: cell-based, Staphylococcus epidermidis; settings: zinc 20 μM, read at 8 h
Protocol: […] As a control, ZnCl2 was added to untreated bacteria. Additional controls included testing of 10 μM CaCl2 and MgCl2 in the same format. The inhibitory effect of EDTA on biofilm production and its reversibility by Zn^2+ was also assessed as described for NTZ.

E. histolytica [10] = test: E. histolytica cell counts
Solubility in water = assay type: physicochemical
[11] = planktonic, Thiophene analogues table, read-out: MIC S. epidermidis Plank
[12] = Thiophene analogues table, read-out: MIC C. jejuni
[13] = biofilm, Thiophene analogues table, read-out: MIC E. coli Biofilm
[14] = planktonic, Thiophene analogues table, read-out: MIC E. coli Plank
[15] = Thiophene analogues table, read-out: MIC MRSA
[16] = Thiophene analogues table, read-out: MIC C. difficile
[17] = Thiophene analogues table, read-out: MIC H. pylori

Row | Compound | MIC (S. epidermidis; [11]) [µM] | MIC (C. jejuni; [12]) [µM] | Disk Diff (%) C. difficile (C. difficile [5]) [%] | MIC S. epidermidis Biofilm (S. epidermidis biofilm) [µM] | MIC (E. coli biofilm; [13]) [µM] | MIC (E. coli; [14]) [µM] | PFOR inhibition relative to nitazoxanide (=100) ([6]; Thiophene analogues table) [%] | MIC (MRSA; [15]) [µM] | MIC (C. difficile [7]; [16]) [µM] | MIC (H. pylori; [17]) [µM] | Disk Diffusion (%) C. difficile (C. difficile [5]) [%] | MIC (μM) S. epidermidis Biofilm (S. epidermidis biofilm) [µM] | PFOR inhibition relative to nitazoxanide (=100) [6] [%] | further results
1 | O=C(Nc1ncc([N+](=O)[O-])s1)c1ccccc1O [TIZ] |  |  |  |  |  |  |  |  |  |  |  |  |  | Bound to plasma proteins [1]: 97.5%; MIC ([2]; staphylococcal strains incl. MRSA S. aureus, microdilution in TSB, read-out: MIC): 8 to 16 mg/L (≈ 30.2 to 60.3 µM); Chelation with ZnCl2 [3]: no chelation; Inhibition of biofilm production ([4]; compared with NTZ): equivalent results
2 | O=C(Nc1ncc([N+](=O)[O-])s1)c1sc2cc(F)ccc2c1Cl [VPC161115] | 5.6 (≈ 2 µg/mL) | 5.6 (≈ 2 µg/mL) | 44 | 0.1 (≈ 0.0358 µg/mL) | 5.6 (≈ 2 µg/mL) | 89.4 (≈ 32 µg/mL) | 96 | 2.1 (≈ 0.751 µg/mL) | 11.2 (≈ 4.01 µg/mL) | 1.0 (≈ 0.358 µg/mL) |  |  |  | 
3 | COc1cccc(C(=O)Nc2ncc([N+](=O)[O-])s2)c1 [VPC161193] |  |  |  |  |  |  |  |  |  |  | 73 ± 1 | 57.3 (≈ 16 µg/mL) | 82 | MIC (S. epidermidis; broth dilution, Trypticase Soy, 24 h, read-out: MIC (μM) S. epidermidis Plank): 28.6 µM (≈ 7.99 µg/mL); MIC (C. jejuni; broth dilution, Brain Heart Infusion, 24 h, read-out: MIC (μM) C. jejuni): 7.2 µM (≈ 2.01 µg/mL); MIC (E. coli biofilm; biofilm, read-out: MIC (μM) E. coli Biofilm): 114.6 µM (≈ 32 µg/mL); MIC (E. coli; broth dilution, LB medium, 24 h, read-out: MIC (μM) E. coli Plank): 114.6 µM (≈ 32 µg/mL); MIC (MRSA; broth dilution, Trypticase Soy, 24 h, read-out: MIC (μM) MRSA): 14.3 µM (≈ 3.99 µg/mL); MIC (C. difficile [7]; agar dilution, anaerobic, Wilkins Chalgrin agar, read-out: MIC (μM) C. difficile): 28.6 µM (≈ 7.99 µg/mL); MIC (H. pylori; broth dilution, Brain Heart Infusion, 24 h, read-out: MIC (μM) H. pylori): 1.3 µM (≈ 0.363 µg/mL)
4 | O=C(Nc1ncc([N+](=O)[O-])s1)c1cc(Cl)sc1Cl [VPC161199] | 12.3 (≈ 3.99 µg/mL) | 2.3 (≈ 0.746 µg/mL) | 89 | 24.7 (≈ 8.01 µg/mL) | 24.7 (≈ 8.01 µg/mL) | 98.7 (≈ 32 µg/mL) | 48 | 6.2 (≈ 2.01 µg/mL) | 12.3 (≈ 3.99 µg/mL) | 1.5 (≈ 0.486 µg/mL) |  |  |  | 
5 | NCCOc1ccccc1C(=O)Nc1ncc([N+](=O)[O-])s1 [VPC161219, 2-(2-Aminoethoxy)-N-(5-nitrothiazol-2-yl)benzamide hydrochloride] |  |  |  |  |  |  |  |  |  |  | 88 ± 4 | 46.4 | 114 | MIC (S. epidermidis; Staphylococcus epidermidis, 24 h, read-out: MIC (μM) S. epidermidis Plank): 92.8 µM; MIC (C. jejuni; Campylobacter jejuni, 24 h, read-out: MIC (μM) C. jejuni): 17.4 µM; Prevention rates (E. histolytica [8]): equivalence; Effect of Zn2+ on the growth inhibitory action (MIC) [9]: no effect; MIC ([2]; MRSA): 16 to 32 mg/L; MIC (E. coli biofilm; Escherichia coli, read-out: MIC (μM) E. coli Biofilm): 46.4 µM; MIC (E. coli; Escherichia coli, 24 h, read-out: MIC (μM) E. coli Plank): 69.6 µM; MIC (MRSA; Staphylococcus aureus, MRSA, 24 h, read-out: MIC (μM) MRSA): 92.8 µM; E. histolytica cell counts, compared by MIC (E. histolytica [10]): superior to nitazoxanide based on MIC; MIC (C. difficile [7]; Clostridioides difficile, read-out: MIC (μM) C. difficile): 46.4 µM; Fold difference in water solubility versus NTZ (Solubility in water; more soluble than NTZ): 15 fold; solubility (Solubility in water; water): 0.4 mg/mL; Fold decrease in anti-biofilm potency versus NTZ ([4]; S. epidermidis 9142): 2 fold; IC50 ([4]; Staphylococcus epidermidis, 9142, read-out: IC50 biofilm production): 8 mg/L; MIC (H. pylori; Helicobacter pylori, 24 h, read-out: MIC (μM) H. pylori): 0.7 µM
